Measurements from patent US20090105118A1, “Preparation and applications of novel complexes made by gamma-polyglutamic acid and cisplatin” (priority 2007, published 2009).

What was measured:
[1] = In vivo toxicity study in healthy mice (survival, body weight); conditions: Kun Ming mice, 5 mg/kg tail vein at 0, 5 and 10 days
Method: 20 healthy Kun Ming mice were randomly divided (10 each for male and female) into two groups. Cisplatin and γ-PGA-CDDP was individually injected in each group in a tail vein. The injections were done at 0, 5, and 10 days at 5 mg/kg. The survival and body weight of the mice were recorded. The results are shown in FIG. 10 and FIG. 11 which are comparisons of the toxicity of γ-PGA-CDDP and CDDP based on the survival of China KM mice and based on the body weight of China KM mice.

[2] = tested on: Human breast cancer cells Bcap-37; assay: Bcap-37 xenograft model, survival and body weight; assay type: in vivo, BALB/C female SKID mouse; conditions: Bcap-37 xenograft mice, equivalent of 4 mg/kg cisplatin, tail vein at 0 and 5 days
Method: Human breast cancer cells Bcap-37 in DMEM with 10% […] were cultured at 37° C. and 5% CO2. 5×10^6 Bcap cells were injected in each of BALB/C female SKID mouse (18 mice, 4 week old, 20 g each). After 7 days the mice were randomly divided into 3 groups, 6 mice per group. The first group was treated with saline, the second group was treated with cisplatin, and the third group was treated with γ-PGA-CDDP. γ-PGA-CDDP complex (at equivalent of 4 mg/kg cisplatin) was injected in a tail vein at 0 and 5 days. The survival and body weight was recorded. The results are shown in FIG. 12 and FIG. 13 which are comparisons of the toxicity of γ-PGA-CDDP and CDDP based on the survival and body weight of BALB/C female mice.

Lung cancer cells = conditions: mice; PG-TXL injected at 120 mg/kg; paclitaxel used alone; cited from earlier work

Row | Compound | body weight change (in vivo toxicity) [1] | mice died ([1]; after 15 days) | body weight change (toxicity) [2] | reduction of lung cancer cells (Lung cancer cells)
1 | cis-daimminedichloroplatinum(II) [cisplatin] | reduced | 90% | obvious decrease of body weight | –
2 | CC(=O)O[C@H]1C(=O)[C@@]2(C)[C@H]([C@H](OC(=O)c3ccccc3)[C@]3(O)C[C@H](OC(=O)[C@H](O)[C@@H](NC(=O)c4ccccc4)c4ccccc4)C(C)=C1C3(C)C)[C@]1(OC(C)=O)CO[C@@H]1C[C@@H]2O [paclitaxel] | – | – | – | 58%
